Values quoted from earlier work, collected in US6803186B2, “Compositions and methods for increasing amino acid absorption in mammals” (The IAMS Company, priority 2001, dated 2004).
Square brackets hold non-standard residues; d marks the D form. Peptide text beside a SMILES is read from it. Sar = CNCC(=O)O

Target: T1, PepT1-expressing Caco-2 cells (Homo sapiens, UniProt P46059)
T1 construct: GlySar uptake by the PepT1-expressing Caco-2 cells; host or cells: Caco-2 cells
T1 sequence (P46059 1-708): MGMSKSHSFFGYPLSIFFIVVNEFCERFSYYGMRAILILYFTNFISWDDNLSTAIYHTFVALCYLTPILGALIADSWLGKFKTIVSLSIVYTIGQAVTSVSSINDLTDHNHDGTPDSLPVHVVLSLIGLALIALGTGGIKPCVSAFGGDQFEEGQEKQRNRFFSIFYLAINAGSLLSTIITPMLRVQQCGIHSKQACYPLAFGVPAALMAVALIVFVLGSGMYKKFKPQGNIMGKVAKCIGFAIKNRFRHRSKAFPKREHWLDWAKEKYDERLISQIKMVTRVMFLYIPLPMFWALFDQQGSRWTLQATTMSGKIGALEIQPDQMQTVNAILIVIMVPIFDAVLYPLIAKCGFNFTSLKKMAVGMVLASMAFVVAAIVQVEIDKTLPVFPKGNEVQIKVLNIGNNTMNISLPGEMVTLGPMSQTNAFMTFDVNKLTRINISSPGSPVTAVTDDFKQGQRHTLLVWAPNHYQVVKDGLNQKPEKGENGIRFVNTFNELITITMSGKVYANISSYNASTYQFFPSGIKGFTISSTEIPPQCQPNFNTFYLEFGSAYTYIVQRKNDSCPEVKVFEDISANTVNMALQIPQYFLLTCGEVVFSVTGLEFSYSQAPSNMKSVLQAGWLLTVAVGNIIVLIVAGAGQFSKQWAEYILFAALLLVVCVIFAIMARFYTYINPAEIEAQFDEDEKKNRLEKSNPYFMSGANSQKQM
Details: read-out: reported Km for GlySar uptake; cited from earlier work

Q: With `CN(CC(=O)O)C(=O)CN` [GlySar, glycylsarcosine] (H-Gly-[Sar]-OH) as the compound, how does the Km read?
A: 1100 µM
